Experiments:
[1] = system: microbe spectrum of a microbially contaminated slurry; assay: quantitative test of microbial count reduction in a microbially contaminated slurry; type: cell-based; parameters: unit not given here; conditions: PCC slurry
Method: Here, the quantitative test was carried out to determine how rapidly (1 hour to 7 days) the stated amounts of active substance reduce the microbial count of a microbially contaminated slurry.

[2] = cited from earlier work
[3] = system: microbially contaminated (alkaline) slurry; conditions: cited from earlier work

OCOCCOCO [EDDM, (ethylenedioxy)dimethanol]
microbial count ([1]; 100 ppm EDDM, 1 hour): 1.6 * 10^5 | microbial count ([1]; 100 ppm EDDM, 2 hours): 1.7 * 10^5 | microbial count ([1]; 100 ppm EDDM, 3 hours): 1.6 * 10^5 | microbial count ([1]; 100 ppm EDDM, 24 hours): 3.4 * 10^4 | microbial count ([1]; 100 ppm EDDM, 3 days): 3.3 * 10^4 | microbial count ([1]; 100 ppm EDDM, 7 days): 5.6 * 10^3 | microbial count ([1]; 200 ppm EDDM, 1 hour): 1.6 * 10^5 | microbial count ([1]; 200 ppm EDDM, 2 hours): 1.1 * 10^5 | microbial count ([1]; 200 ppm EDDM, 3 hours): 1.2 * 10^5 | microbial count ([1]; 200 ppm EDDM, 24 hours): 2.9 * 10^4 | microbial count ([1]; 200 ppm EDDM, 3 days): 2.3 * 10^4 | microbial count ([1]; 200 ppm EDDM, 7 days): 1.7 * 10^3 | decline in active substance at elevated temperatures ([2]; 50-80° C., over a period of a few days, alkaline pH): no significant decline

O=CCCCC=O [GDA, glutaraldehyde]
microbial count ([1]; 10 ppm GDA, 1 hour): 1.2 * 10^5 | microbial count ([1]; 10 ppm GDA, 2 hours): 1.3 * 10^4 | microbial count ([1]; 10 ppm GDA, 3 hours): 2.6 * 10^3 | microbial count ([1]; 10 ppm GDA, 24 hours): <100 | microbial count ([1]; 10 ppm GDA, 3 days): 4.7 * 10^2 | microbial count ([1]; 10 ppm GDA, 7 days): 3.5 * 10^5 | microbial count ([1]; 20 ppm GDA, 1 hour): 2.2 * 10^3 | microbial count ([1]; 20 ppm GDA, 2 hours): 3.0 * 10^2 | microbial count ([1]; 20 ppm GDA, 3 hours): <100 | microbial count ([1]; 20 ppm GDA, 24 hours): <100 | microbial count ([1]; 20 ppm GDA, 3 days): <100 | microbial count ([1]; 20 ppm GDA, 7 days): 1.7 * 10^3 | time to sanitize a microbially contaminated (alkaline) slurry [3]: 1 to 4 h | degradation of active substance in the slurry ([2]; in the slurry after a few days): completely degraded

Reference: patent US20090088483A1, “AQUEOUS SUSPENSIONS OR DISPERSIONS OF INORGANIC PIGMENTS CONTAINING A MIXTURE CONSISTING OF DIALDEHYDES AND FORMALDEHYDE CLEAVERS” (priority 2005, published 2009)
